Laboratory results published in US8058009B2, “Target protein and target gene in drug designing and screening method” (Reverse Proteomics Research Institute Co., Ltd., priority 2004, dated 2011).
One block for each compound: values may come before it.

Key:
FLJ31146-derived protein = biological target: T1, FLJ31146-derived protein (Homo sapiens, UniProt Q9BSE4); assay: Biacore S51 surface plasmon resonance binding to FLJ31146-derived protein
T1 construct: made in house; host or cells: wheat germ cell-free synthesis system (PROTEIOS, Toyobo)
T1 sequence (Q9BSE4 1-406): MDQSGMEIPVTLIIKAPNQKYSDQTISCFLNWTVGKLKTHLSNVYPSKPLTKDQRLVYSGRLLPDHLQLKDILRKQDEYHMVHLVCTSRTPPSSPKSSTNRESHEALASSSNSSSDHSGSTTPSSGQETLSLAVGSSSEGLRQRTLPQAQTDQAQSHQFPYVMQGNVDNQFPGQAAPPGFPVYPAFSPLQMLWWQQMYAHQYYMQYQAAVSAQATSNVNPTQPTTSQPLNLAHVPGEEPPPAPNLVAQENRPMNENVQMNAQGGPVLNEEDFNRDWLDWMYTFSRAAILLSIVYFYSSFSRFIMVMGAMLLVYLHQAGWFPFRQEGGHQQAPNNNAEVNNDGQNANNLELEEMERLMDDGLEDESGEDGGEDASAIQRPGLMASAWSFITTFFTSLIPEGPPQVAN
Protocol: (§1) A desired gene of a human full-length cDNA clone was BP-reacted with the PCR cloning vector Gateway pDONR201 using the Invitrogen Gateway system per the kit protocol to yield an entry vector. […]
(§2) The surface of the CM5 sensor chip for S51 commercially available from Biacore Company was subjected to an NTA treatment with 1 M EDC, 1.33 M NHS and 16 mg/ml AB-NTA (pH 9.2) to prepare an NTA sensor chip for S51. […] A correction for the effect of DMSO contained in the compound solutions and running buffer (solvent correction) was performed on the basis of measured results from separately prepared solutions mimicking the running buffer, and containing 3.8 to 5.1% of DMSO (8 points). The compound characterization assay program for Biacore S51 was performed to measure the interactions between immobilized ligands (proteins) and analytes (compounds; 62.5 μM to 0.244 μM), and the results were analyzed using a dedicated software program. […]

FLJ11474-derived protein = biological target: T2, FLJ11474-derived protein (Homo sapiens, UniProt Q9BVC4); assay: Biacore S51 surface plasmon resonance binding to FLJ11474-derived protein
T2 construct: made in house; host or cells: wheat germ cell-free synthesis system (PROTEIOS, Toyobo)
Protocol: as §1, §2

FLJ14467-derived protein = biological target: T3, FLJ14467-derived protein (Homo sapiens, UniProt Q9HB40); assay: Biacore S51 surface plasmon resonance binding to FLJ14467-derived protein
T3 construct: made in house; host or cells: wheat germ cell-free synthesis system (PROTEIOS, Toyobo)
T3 sequence (Q9HB40 27-452): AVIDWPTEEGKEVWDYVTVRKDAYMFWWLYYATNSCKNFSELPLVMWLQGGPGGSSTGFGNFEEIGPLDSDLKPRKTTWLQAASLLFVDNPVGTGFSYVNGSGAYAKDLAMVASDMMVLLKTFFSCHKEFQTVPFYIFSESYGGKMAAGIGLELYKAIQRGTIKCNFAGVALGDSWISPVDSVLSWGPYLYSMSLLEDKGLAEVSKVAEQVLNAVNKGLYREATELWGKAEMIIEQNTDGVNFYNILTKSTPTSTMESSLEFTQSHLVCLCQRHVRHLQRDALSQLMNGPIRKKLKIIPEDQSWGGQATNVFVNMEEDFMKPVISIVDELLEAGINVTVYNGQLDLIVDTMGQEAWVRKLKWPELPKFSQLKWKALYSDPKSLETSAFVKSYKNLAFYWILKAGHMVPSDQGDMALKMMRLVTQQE
Protocol: as §1, §2

FLJ11045-derived protein = biological target: T4, FLJ11045-derived protein (Homo sapiens, UniProt Q9BXT8, E1380K); assay: Biacore S51 surface plasmon resonance binding to FLJ11045-derived protein
T4 construct: made in house; host or cells: wheat germ cell-free synthesis system (PROTEIOS, Toyobo)
T4 sequence (Q9BXT8 949-1581 isoform Q9BXT8-4 E1338K): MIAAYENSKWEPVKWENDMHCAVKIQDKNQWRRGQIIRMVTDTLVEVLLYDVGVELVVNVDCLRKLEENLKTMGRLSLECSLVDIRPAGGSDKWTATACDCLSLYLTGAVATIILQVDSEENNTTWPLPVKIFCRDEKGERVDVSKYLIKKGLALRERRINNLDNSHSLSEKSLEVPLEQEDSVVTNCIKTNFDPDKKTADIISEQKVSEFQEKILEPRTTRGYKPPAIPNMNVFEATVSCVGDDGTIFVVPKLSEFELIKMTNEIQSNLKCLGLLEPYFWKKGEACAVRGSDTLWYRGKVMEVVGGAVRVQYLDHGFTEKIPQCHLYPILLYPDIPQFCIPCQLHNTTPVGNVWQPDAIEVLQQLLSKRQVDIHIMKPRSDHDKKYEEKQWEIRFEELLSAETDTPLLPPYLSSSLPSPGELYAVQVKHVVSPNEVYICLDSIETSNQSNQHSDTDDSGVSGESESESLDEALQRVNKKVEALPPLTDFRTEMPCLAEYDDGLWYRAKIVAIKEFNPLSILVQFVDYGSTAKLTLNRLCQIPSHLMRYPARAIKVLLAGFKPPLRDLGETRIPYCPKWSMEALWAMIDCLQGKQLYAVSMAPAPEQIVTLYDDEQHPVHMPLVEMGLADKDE
Description: A desired gene of a human full-length cDNA clone was BP-reacted with the PCR cloning vector Gateway pDONR201 using the Invitrogen Gateway system per the kit protocol to yield an entry vector. As the destination vector for the Gateway system, a Gateway cassette having a Gateway recombinant sequence was introduced to allow the utilization of the Gateway system on the basis of pEU3-NII (Toyobo), which matches with a cell-free protein synthesis system (PROTEIOS) of Toyobo Co., Ltd., which employs a wheat germ extract, and a double tag destination vector modified using the PCR method to allow the expression of a peptide having a histidine tag and a FLAG tag sequence in the N-terminal region of the expressed protein was prepared.
The prepared double tag destination vector and entry vector were […] using the Invitrogen Gateway system per the protocol and the Escherichia coli competent cell DH5α was transformed therewith; a clone incorporating the expression vector was selected. A plasmid was prepared from the obtained clone using the QIAfilter Midi kit (QUIAGEN) per the kit protocol. The plasmid obtained was subjected to phenol/chloroform treatment per the protocol for PROTEIOS (Toyobo) to inactivate the RNase to yield a purified expression plasmid.
A recombinant protein was synthesized using a cell-free protein synthesis system (PROTEIOS) of Toyobo Co., Ltd., which employs a wheat germ extract. Subsequently, mRNA was prepared from the expression plasmid acquired by the method described in section 1 above per the protocol for PROTEIOS. With 20 μg of the mRNA acquired, a protein was synthesized per the protocol for PROTEIOS using two wells of a 96-well microtiter plate. The protein synthesized was subjected to high-speed centrifugation, the precipitate was removed, and the resulting soluble fraction was purified using ANTI-FLAG M2 Affinity Gel (SIGMA Company) having an anti-FLAG tag antibody immobilized hereto per the protocol, to yield a purified protein.
as §2

FLJ10335-derived protein = biological target: T5, FLJ10335-derived protein (Homo sapiens, UniProt Q9NW38, S77P); assay: Biacore S51 surface plasmon resonance binding to FLJ10335-derived protein
T5 construct: made in house; host or cells: wheat germ cell-free synthesis system (PROTEIOS, Toyobo)
T5 sequence (Q9NW38 1-375 S77P): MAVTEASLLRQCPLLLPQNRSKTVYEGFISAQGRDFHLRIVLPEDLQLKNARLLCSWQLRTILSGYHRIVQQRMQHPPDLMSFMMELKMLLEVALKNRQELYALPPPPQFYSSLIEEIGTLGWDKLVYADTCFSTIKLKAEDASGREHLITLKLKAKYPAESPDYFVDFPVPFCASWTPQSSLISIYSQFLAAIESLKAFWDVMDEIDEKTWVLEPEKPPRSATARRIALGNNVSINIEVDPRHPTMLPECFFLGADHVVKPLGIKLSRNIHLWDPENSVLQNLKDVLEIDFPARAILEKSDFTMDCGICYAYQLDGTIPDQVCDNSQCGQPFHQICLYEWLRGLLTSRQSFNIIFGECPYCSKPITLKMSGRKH
Protocol: as §1, §2

FLJ14797-derived protein = biological target: T6, FLJ14797-derived protein (Homo sapiens, UniProt Q9UGJ1); assay: Biacore S51 surface plasmon resonance binding to FLJ14797-derived protein
T6 construct: made in house; host or cells: wheat germ cell-free synthesis system (PROTEIOS, Toyobo)
Protocol: as §1, §2

T2 sequence (Q9BVC4 1-325 isoform Q9BVC4-5): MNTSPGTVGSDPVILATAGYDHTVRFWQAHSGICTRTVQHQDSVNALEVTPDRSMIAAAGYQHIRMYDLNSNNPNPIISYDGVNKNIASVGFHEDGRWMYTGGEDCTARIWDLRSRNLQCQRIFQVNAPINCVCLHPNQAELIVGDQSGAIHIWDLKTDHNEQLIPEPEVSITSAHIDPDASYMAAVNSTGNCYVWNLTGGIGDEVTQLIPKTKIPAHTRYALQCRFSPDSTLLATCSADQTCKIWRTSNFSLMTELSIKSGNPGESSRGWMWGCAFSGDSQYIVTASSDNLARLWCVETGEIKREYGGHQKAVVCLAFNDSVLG
T6 sequence (Q9UGJ1 whole entry): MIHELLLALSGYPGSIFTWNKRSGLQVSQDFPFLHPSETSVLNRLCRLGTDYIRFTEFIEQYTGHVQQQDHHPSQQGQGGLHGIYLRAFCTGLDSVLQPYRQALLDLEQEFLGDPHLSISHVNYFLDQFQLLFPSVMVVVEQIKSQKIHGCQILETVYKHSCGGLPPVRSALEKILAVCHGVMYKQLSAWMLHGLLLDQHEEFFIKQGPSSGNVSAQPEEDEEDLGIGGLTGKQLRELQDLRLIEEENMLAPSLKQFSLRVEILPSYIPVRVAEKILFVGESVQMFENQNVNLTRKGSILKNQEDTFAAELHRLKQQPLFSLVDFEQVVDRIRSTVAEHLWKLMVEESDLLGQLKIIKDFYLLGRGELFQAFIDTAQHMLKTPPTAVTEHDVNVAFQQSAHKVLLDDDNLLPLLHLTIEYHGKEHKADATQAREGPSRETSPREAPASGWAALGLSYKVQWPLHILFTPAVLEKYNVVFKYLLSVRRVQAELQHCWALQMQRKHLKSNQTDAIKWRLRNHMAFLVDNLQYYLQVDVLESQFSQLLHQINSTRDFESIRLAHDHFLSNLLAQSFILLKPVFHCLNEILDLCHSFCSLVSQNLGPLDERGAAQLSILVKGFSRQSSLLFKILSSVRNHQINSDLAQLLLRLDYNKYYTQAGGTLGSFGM

interaction with the protein (binding level dose-proportional, saturated at high doses) (FLJ31146-derived protein): interact specifically
SMILES: CC1(C)S[C@@H]2[C@H](NC(=O)[C@H](N)c3ccccc3)C(=O)N2[C@H]1C(=O)O [ampicillin]

interaction with the protein (binding level dose-proportional, saturated at high doses) (FLJ11474-derived protein): interact specifically
interaction with the protein (binding level dose-proportional, saturated at high doses) (FLJ14467-derived protein): interact specifically
Kd (FLJ11045-derived protein; Biacore S51, immobilized FLJ11045-derived protein, analyte 62.5 μM to 0.244 μM, read-out: binding dissociation constant Kd): 12.4 µM
interaction with the protein (binding level dose-proportional, saturated at high doses) (FLJ11045-derived protein; FLJ11045-derived protein, Biacore S51): interact specifically
interaction with the protein (binding level dose-proportional, saturated at high doses) (FLJ10335-derived protein): interact specifically
SMILES: N[C@@H](C(=O)N[C@@H]1C(=O)N2C(C(=O)O)=C(Cl)CS[C@H]12)c1ccccc1 [cefaclor]

interaction with the protein (binding level dose-proportional, saturated at high doses) (FLJ14797-derived protein): interact specifically
SMILES: O=C(c1ccc(F)cc1)C1CCN(CCn2c(=O)[nH]c3ccccc3c2=O)CC1 [ketanserin]
